Reference: PubChem BioAssay (NCI)
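Where inhibition never reached the appropriate level, the endpoint shown equals the highest concentration tested. Otherwise, values were interpolated linearly from a five-concentration, 48-hour dose response in 96-well plates. TGI: total growth inhibition.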

Experiments:
Assay in all cases: NCI-60 cell line screen, 48 h
SK-OV-3 ovarian = system: SK-OV-3 ovarian
IGROV1 ovarian = system: IGROV1 ovarian
MCF7 breast = system: MCF7 breast
OVCAR-4 ovarian = system: OVCAR-4 ovarian
HS 578T breast = system: HS 578T breast
NCI/ADR-RES ovarian = system: NCI/ADR-RES ovarian
CCRF-CEM leukemia = system: CCRF-CEM leukemia
OVCAR-3 ovarian = system: OVCAR-3 ovarian
COLO 205 colon = system: COLO 205 colon
NCI-H23 lung = system: NCI-H23 lung
NCI-H460 lung = system: NCI-H460 lung
ACHN renal = system: ACHN renal
NCI-H522 lung = system: NCI-H522 lung
OVCAR-8 ovarian = system: OVCAR-8 ovarian
M14 melanoma = system: M14 melanoma
RPMI-8226 leukemia = system: RPMI-8226 leukemia
SF-295 CNS = system: SF-295 CNS
HCT-116 colon = system: HCT-116 colon
HCT-15 colon = system: HCT-15 colon
UACC-62 melanoma = system: UACC-62 melanoma
SN12C renal = system: SN12C renal
SK-MEL-2 melanoma = system: SK-MEL-2 melanoma
NCI-H226 lung = system: NCI-H226 lung
MALME-3M melanoma = system: MALME-3M melanoma
EKVX NSCLC = system: EKVX NSCLC
MDA-MB-435 = system: MDA-MB-435
HOP-62 NSCLC = system: HOP-62 NSCLC
MOLT-4 leukemia = system: MOLT-4 leukemia
SK-MEL-28 melanoma = system: SK-MEL-28 melanoma
OVCAR-5 ovarian = system: OVCAR-5 ovarian
SNB-19 CNS = system: SNB-19 CNS
SNB-75 CNS = system: SNB-75 CNS
KM12 colon = system: KM12 colon
MDA-MB-231 breast = system: MDA-MB-231 breast
A549 NSCLC = system: A549 NSCLC
UACC-257 melanoma = system: UACC-257 melanoma
LOX IMVI melanoma = system: LOX IMVI melanoma
TK-10 renal = system: TK-10 renal
MDA-N = system: MDA-N
UO-31 renal = system: UO-31 renal
SF-268 CNS = system: SF-268 CNS
K-562 leukemia = system: K-562 leukemia
HT29 colon = system: HT29 colon
U251 CNS = system: U251 CNS
HCC-2998 colon = system: HCC-2998 colon
CAKI-1 renal = system: CAKI-1 renal
SF-539 CNS = system: SF-539 CNS
PC-3 prostate = system: PC-3 prostate
SR leukemia = system: SR leukemia
HL-60(TB) leukemia = system: HL-60(TB) leukemia
HOP-92 NSCLC = system: HOP-92 NSCLC
SW-620 colon = system: SW-620 colon
BT-549 breast = system: BT-549 breast
DU-145 prostate = system: DU-145 prostate
786-0 renal = system: 786-0 renal
SK-MEL-5 melanoma = system: SK-MEL-5 melanoma
RXF 393 renal = system: RXF 393 renal

Measured: TGI

Cc1ccc(C(=O)O)cc1S(=O)(=O)Nn1cnc2ccc(S(=O)(=O)Nc3ccccc3C(=O)O)cc2c1=O
not listed: SK-MEL-5 melanoma | RXF 393 renal
> 100 µM: all other assays above

COC(CCC[N+](C)(C)C)CC[N+](C)(C)C (stereo not given)
not listed: HS 578T breast | SK-MEL-2 melanoma | MDA-MB-435 | KM12 colon | MDA-MB-231 breast | LOX IMVI melanoma | HOP-92 NSCLC
> 100 µM: all other assays above
